According to patent US20030005484A1, “Microbiocidal and pesticidal aromatic aldehydes” (ProGuard, Inc., priority 1994, published 2003):

Test system: Stubby Root nematode
Assay: vineyard grape vines, nematode infestation: stubby root
Type: in vivo
Experimental: The subject formulations were tested for ability to reduce grape vine infestation by root knot, ring, stubby root, and roll lesion nematodes. Grape vines (Harmony rootstock) in a vinyard were treated with 1000 ppm or 3000 ppm cinnamaldehyde in 2% Tween 80, the commercial anti-nematode agent Nemacur, or a formulation blank. The extent of nematode infestation was determined at the time of treatment and at 30 and 60 days post-treatment.

## O=C/C=C/c1ccccc1 [cinnamic aldehyde]
1000 ppm in 2% Tween 80, 30 days post-treatment
  Stubby Root, nematodes per 250 cc soil: 45 per 250 cc soil
1000 ppm in 2% Tween 80, 60 days post-treatment
  Stubby Root, nematodes per 250 cc soil: 36.2 per 250 cc soil
1000 ppm in 2% Tween 80, day 0 (time of treatment)
  Stubby Root, nematodes per 250 cc soil: 13.8 per 250 cc soil
3000 ppm in 2% Tween 80, 30 days post-treatment
  Stubby Root, nematodes per 250 cc soil: 8.8 per 250 cc soil
3000 ppm in 2% Tween 80, 60 days post-treatment
  Stubby Root, nematodes per 250 cc soil: 43.5 per 250 cc soil
3000 ppm in 2% Tween 80, day 0 (time of treatment)
  Stubby Root, nematodes per 250 cc soil: 0.8 per 250 cc soil
